Laboratory results: patent US20220259193A1, “KCNT1 INHIBITORS AND METHODS OF USE” (Praxis Precision Medicines, Inc., priority 2019, published 2022)

molecular target: T1, KCNT1 (KNa1.1, Slack) (Homo sapiens, UniProt Q5JUK3); assay: KCNT1 patch clamp assay (SyncroPatch 384PE automated patch clamp); assay type: cell-based; conditions: tetracycline inducible HEK-TREX cell line; perforated patch; step from −80 mV to 0 mV; room temperature; read-out: KCNT1-WT IC50
T1 construct: expressed in transfected cells; host or cells: HEK-TREX (tetracycline-inducible HEK cell line)
T1 sequence (Q5JUK3 1-1230): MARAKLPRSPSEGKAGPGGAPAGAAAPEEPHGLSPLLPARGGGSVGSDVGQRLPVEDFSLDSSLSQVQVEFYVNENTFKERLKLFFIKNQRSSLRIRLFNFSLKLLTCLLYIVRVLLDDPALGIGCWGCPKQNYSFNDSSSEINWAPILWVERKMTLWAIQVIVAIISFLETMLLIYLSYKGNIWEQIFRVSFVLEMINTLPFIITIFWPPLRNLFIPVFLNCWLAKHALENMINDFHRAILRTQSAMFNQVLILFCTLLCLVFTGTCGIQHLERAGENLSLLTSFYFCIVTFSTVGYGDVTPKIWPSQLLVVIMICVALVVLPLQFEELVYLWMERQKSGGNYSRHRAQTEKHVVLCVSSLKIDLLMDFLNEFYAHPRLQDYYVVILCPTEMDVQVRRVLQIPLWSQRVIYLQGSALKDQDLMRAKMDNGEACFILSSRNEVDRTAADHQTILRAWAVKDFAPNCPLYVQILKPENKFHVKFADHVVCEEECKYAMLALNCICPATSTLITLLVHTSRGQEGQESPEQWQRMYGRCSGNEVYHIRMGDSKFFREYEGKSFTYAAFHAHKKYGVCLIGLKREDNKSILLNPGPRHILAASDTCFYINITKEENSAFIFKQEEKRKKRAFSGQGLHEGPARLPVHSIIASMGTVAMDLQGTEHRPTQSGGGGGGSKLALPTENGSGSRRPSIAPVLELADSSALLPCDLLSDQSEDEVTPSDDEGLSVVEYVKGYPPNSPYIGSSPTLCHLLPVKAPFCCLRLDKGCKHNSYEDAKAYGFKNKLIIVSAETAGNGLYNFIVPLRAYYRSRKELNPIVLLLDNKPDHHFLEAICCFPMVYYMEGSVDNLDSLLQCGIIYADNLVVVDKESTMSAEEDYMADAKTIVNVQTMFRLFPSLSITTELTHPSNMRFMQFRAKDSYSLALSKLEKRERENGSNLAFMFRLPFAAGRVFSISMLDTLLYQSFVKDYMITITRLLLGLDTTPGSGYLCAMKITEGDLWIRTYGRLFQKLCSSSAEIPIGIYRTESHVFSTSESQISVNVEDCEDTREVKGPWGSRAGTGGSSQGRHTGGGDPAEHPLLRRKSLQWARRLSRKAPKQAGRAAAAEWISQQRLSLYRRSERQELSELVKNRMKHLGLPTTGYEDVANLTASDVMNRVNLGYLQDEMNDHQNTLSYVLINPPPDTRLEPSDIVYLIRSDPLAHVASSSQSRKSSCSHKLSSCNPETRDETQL
Summary of the method: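 Tetracycline-inducible HEK-TREX cells; perforated-patch (10 μM escin) population recordings at room temperature, holding −80 mV with 100 ms step to 0 mV.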

SMILES | IC50
Cn1nc(C(F)(F)F)cc1C(=O)NC(CC#N)c1nc(-c2cccc(F)c2)no1 (centres unmarked) [Compound 141] | 1 to 20 µM
C[C@H](NC(=O)c1cn(C)nc1C(F)F)c1nc(-c2cccc(F)c2)no1 [Compound 188, (S)-3-(difluoromethyl)-N-(1-(3-(3-fluorophenyl)-1,2,4-oxadiazol-5-yl)ethyl)-1-methyl-1H-pyrazole-4-carboxamide] | 1 to 20 µM
Cc1nn(C)c(C(=O)N[C@@H](C)c2nc(-c3ccnc(C(F)(F)F)c3)no2)c1C [Compound 244] | 1 to 20 µM
Cc1nn(C(C)C)cc1C(=O)N[C@@H](C)c1nc(-c2ccc(F)c(F)c2)no1 [Compound 87] | 1 to 20 µM
CC(NC(=O)c1cc(C(F)(F)F)nn1C)c1nc(-c2cccc(S(C)(=O)=O)c2)no1 (centres unmarked) [Compound 179, 1-methyl-N-(1-(3-(3-(methylsulfonyl)phenyl)-1,2,4-oxadiazol-5-yl)ethyl)-3-(trifluoromethyl)-1H-pyrazole-5-carboxamide] | 1 to 20 µM
C[C@H](NC(=O)c1ccnn1C1CCCC1)c1nc(-c2ccnc(C3CC3)c2)no1 [Compound 270] | ≤ 1 µM
CCOC(=O)N[C@@H](C)c1nc(-c2ccnc(C3CC3)c2)no1 [Compound 274] | ≤ 1 µM
CN(C)C(=O)C[C@H](NC(=O)c1cc(C(F)(F)F)nn1C)c1nc(-c2cccc(F)c2)no1 (single isomer, unassigned) [Compound 136] | 1 to 20 µM
C[C@H](NC(=O)c1cc(C(F)(F)F)nn1C)c1nc(-c2ccnc(CN3CCCC3)c2)no1 [Compound 261, (S)-1-methyl-N-(1-(3-(2-(pyrrolidin-1-ylmethyl)pyridin-4-yl)-1,2,4-oxadiazol-5-yl)ethyl)-3-(trifluoromethyl)-1H-pyrazole-5-carboxamide] | ≥ 20 µM
C[C@@H](NC(=O)c1cc(C(F)(F)F)nn1C)c1nc(-c2ccc(F)c(F)c2)no1 (single isomer, unassigned) [Compound 76] | ≤ 1 µM
Cn1nc(C(F)(F)F)cc1C(=O)NC1(c2nc(-c3cccc(F)c3)no2)CCOC1 (centres unmarked) [Compound 148] | 1 to 20 µM
Cc1cccc(-c2noc(C(C)NC(=O)c3cc(C)nn3C(C)C)n2)c1 (centres unmarked) [Compound 22] | ≤ 1 µM
CC(c1nc(-c2cccc(CO)c2)no1)N(C)C(=O)c1cc(C(F)(F)F)nn1C (centres unmarked) [Compound 177, N-(1-(3-(3-(hydroxymethyl)phenyl)-1,2,4-oxadiazol-5-yl)ethyl)-N,1-dimethyl-3-(trifluoromethyl)-1H-pyrazole-5-carboxamide] | ≥ 20 µM
CCOc1cc(-c2noc([C@H](C)NC(=O)OC(C)(C)C)n2)ccn1 [Compound 290, tert-butyl (S)-(1-(3-(2-ethoxypyridin-4-yl)-1,2,4-oxadiazol-5-yl)ethyl)carbamate] | ≤ 1 µM
Cn1nc(C(F)(F)F)cc1C(=O)N[C@H](CCS(C)(=O)=O)c1nc(-c2cccc(F)c2)no1 (single isomer, unassigned) [Compound 143] | ≥ 20 µM
CC(=O)Oc1cccc(-c2noc(C(C)NC(=O)c3cc(C(F)(F)F)nn3C)n2)c1 (racemic) [Compound 185, 3-(5-(1-(1-methyl-3-(trifluoromethyl)-1H-pyrazole-5-carboxamido)ethyl)-1,2,4-oxadiazol-3-yl)phenyl acetate] | 1 to 20 µM
C[C@H](NC(=O)OC(C)(C)C)c1nc(-c2ccnc(C3(C)CC3)c2)no1 [Compound 272, tert-butyl (S)-(1-(3-(2-(1-methylcyclopropyl)pyridin-4-yl)-1,2,4-oxadiazol-5-yl)ethyl)carbamate] | 1 to 20 µM
C[C@H](NC(=O)c1cc(C(F)(F)F)nn1CC(=O)N(C)C)c1nc(-c2ccnc(C3CC3)c2)no1 [Compound 230, (S)—N-(1-(3-(2-cyclopropylpyridin-4-yl)-1,2,4-oxadiazol-5-yl)ethyl)-1-(2-(dimethylamino)-2-oxoethyl)-3-(trifluoromethyl)-1H-pyrazole-5-carboxamide] | ≤ 1 µM
Cn1nc(C(F)(F)F)cc1C(=O)NC(CS(C)(=O)=O)c1nc(-c2cccc(F)c2)no1 (centres unmarked) [Compound 171] | 1 to 20 µM

SMILES | IC50
CC[C@H](NC(=O)c1cc(C(F)(F)F)nn1C)c1nc(-c2cccc(F)c2)no1 [Compound 105] | ≤ 1 µM
C[C@H](NC(=O)c1cc(C(F)F)nn1C)c1nc(-c2ccnc(C3CCCC3)c2)no1 [Compound 308, (S)—N-(1-(3-(2-cyclopentylpyridin-4-yl)-1,2,4-oxadiazol-5-yl)ethyl)-3-(difluoromethyl)-1-methyl-1H-pyrazole-5-carboxamide] | ≤ 1 µM
Cc1cccc(-c2noc([C@H](C)NC(=O)c3cn(C(C)C)nc3C)n2)c1 [Compound 233] | ≤ 1 µM
C[C@H](NC(=O)c1cc(C(F)F)nn1C1CC1)c1nc(-c2cccc(F)c2)no1 [Compound 132] | ≤ 1 µM
Cn1nc(C(F)(F)F)cc1C(=O)NC(CC(=O)N1CC(O)C1)c1nc(-c2cccc(F)c2)no1 (centres unmarked) [Compound 123] | ≥ 20 µM
CC[C@H](NC(=O)c1cc(C)nn1-c1ccccc1)c1nc(-c2ccnc(C)c2)no1 [Compound 218, (S)-3-methyl-N-(1-(3-(2-methylpyridin-4-yl)-1,2,4-oxadiazol-5-yl)propyl)-1-phenyl-1H-pyrazole-5-carboxamide] | ≤ 1 µM
C[C@H](NC(=O)OCc1ccccc1)c1nc(-c2ccnc(C3CC3)c2)no1 [Compound 273] | ≤ 1 µM
Cc1nn(C(C)C)cc1C(=O)N[C@@H](C)c1nc(-c2cccc(F)c2)no1 [Compound 153] | ≤ 1 µM
C[C@H](NC(=O)c1ccnn1CC1CC1)c1nc(-c2ccnc(C3CC3)c2)no1 [Compound 310, 2-(cyclopropylmethyl)-N-[(1S)-1-[3-(2-cyclopropyl-4-pyridyl)-1,2,4-oxadiazol-5-yl]ethyl]pyrazole-3-carboxamide] | ≤ 1 µM
C[C@H](NC(=O)c1cc(C(F)(F)F)nn1Cc1cccnc1)c1nc(-c2ccnc(C(F)(F)F)c2)no1 [Compound 253, (S)-1-(pyridin-3-ylmethyl)-3-(trifluoromethyl)-N-(1-(3-(2-(trifluoromethyl)pyridin-4-yl)-1,2,4-oxadiazol-5-yl)ethyl)-1H-pyrazole-5-carboxamide] | ≤ 1 µM
Cn1nc(C(F)(F)F)cc1C(=O)NC1(c2nc(-c3cccc(F)c3)no2)COC1 [Compound 119] | ≤ 1 µM
Cc1cccc(-c2noc([C@@H](C)NC(=O)c3cn(C(C)C)nc3C)n2)c1 [Compound 232, 1-isopropyl-3-methyl-N-[(1R)-1-[3-(m-tolyl)-1,2,4-oxadiazol-5-yl]ethyl]pyrazole-4-carboxamide] | ≥ 20 µM
CC(C)c1cc(-c2noc([C@H](C)NC(=O)c3cc(C(F)(F)F)nn3C)n2)ccn1 [Compound 269, (S)—N-(1-(3-(2-isopropylpyridin-4-yl)-1,2,4-oxadiazol-5-yl)ethyl)-1-methyl-3-(trifluoromethyl)-1H-pyrazole-5-carboxamide] | ≤ 1 µM
CC[C@H](NC(=O)c1cc(C2CC2)nn1C)c1nc(-c2cccc(F)c2)no1 [Compound 60] | ≤ 1 µM
Cc1nn(C(C)C)cc1C(=O)NC(C)c1nc(-c2ccc(C(F)(F)F)cc2)no1 (centres unmarked) [Compound 98] | 1 to 20 µM
COC[C@@H](NC(=O)c1cc(C(F)(F)F)nn1C)c1nc(-c2cccc(C)c2)no1 (single isomer, unassigned) [Compound 80] | ≤ 1 µM
Cn1nc(C(F)(F)F)cc1C(=O)NCc1nc(-c2ccnc(C3CC3)c2)no1 [Compound 301, N-[[3-(2-cyclopropyl-4-pyridyl)-1,2,4-oxadiazol-5-yl]methyl]-2-methyl-5-(trifluoromethyl)pyrazole-3-carboxamide] | ≤ 1 µM
COC(=O)CC(NC(=O)c1cc(C(F)(F)F)nn1C)c1nc(-c2cccc(F)c2)no1 (single isomer, unassigned) [Compound 126, methyl 3-[3-(3-fluorophenyl)-1,2,4-oxadiazol-5-yl]-3-[[2-methyl-5-(trifluoromethyl)pyrazole-3-carbonyl]amino]propanoate] | ≤ 1 µM
CN(Cc1nc(-c2ccnc(C3CC3)c2)no1)C(=O)c1cc(C(F)(F)F)nn1C [Compound 302, N-[[3-(2-cyclopropyl-4-pyridyl)-1,2,4-oxadiazol-5-yl]methyl]-N,2-dimethyl-5-(trifluoromethyl)pyrazole-3-carboxamide] | ≤ 1 µM
